Measurements from US7241893B2, “Thiazolinone 2-substituted quinolines” (Hoffman-La Roche Inc., priority 2004, dated 2007).

Biological target: T1, recombinant human CDK1/Cyclin B complex (Homo sapiens, UniProt P06493)
T1 construct: made in house; host or cells: High Five insect cells (baculovirus) for CDK1/GST-cyclin B; E. coli M15 for the Rb substrate
Test: CDK1/Cyclin B kinase assay (FlashPlate or HTRF)
Type: biochemical
Details: Rb protein substrate, Ki=IC50/(1+[S]/Km)
Method: To determine inhibition of CDK1 activity, either FlashPlate™ (NEN™-Life Science Products) assay or HTRF assay was performed. Both types of kinase assays were carried out using recombinant human CDK1/Cyclin B complex. GST-cyclinB (GST-cycB) and CDK1 cDNA clones in baculovirus vectors were provided by Dr. W. Harper at the Baylor College of Medicine, Houston, Tex. Proteins were co-expressed in High Five™ insect cells and the complex was purified on glutathione Sepharose resin (Pharmacia, Piscataway, N.J.) as previously described (Harper, J. W. et al. Cell 1993, 75, 805–816). A 6x-Histidine tagged truncated form of retinoblastoma (Rb) protein (amino acid 386–928) was used as the substrate for the CDK1/Cyclin B assay (the expression plasmid was provided by Dr. Veronica Sullivan, Department of Molecular Virology, Roche Research Centre, Welwyn Garden City, United Kingdom). The Rb protein is a natural substrate for phosphorylation by CDK1 (see Herwig and Strauss Eur. J. Biochem. Vol. 246 (1997) pp. 581–601 and the references cited therein). The expression of the 62 Kd protein was under the control of an IPTG inducible promoter in an M15 E. coli strain. Cells were lysed by sonication and purification was carried out by binding lysates at pH 8.0 to a Ni-chelated agarose column pretreated with 1 mM imidazole. The resin was then washed several times with incrementally decreasing pH buffers to pH 6.0, and eluted with 500 mM imidazole. Eluted protein was dialysed against 20 mM HEPES pH 7.5, 30% glycerol, 200 mM NaCl, and 1 mM DTT. Purified Rb fusion protein stocks were quantitated for protein concentration, aliquoted, and stored at −70° C.
For the FlashPlate kinase assay, 96-well FlashPlates were coated with Rb protein at 10 μg/ml, using 100 μl per well. Plates were incubated at 4° C. overnight or at room temperature for 3 hours on a shaker. To control for nonspecific phosphorylation, one row of wells was coated with 100 μl/well coating buffer (20 mM HEPES, 0.2 M NaCl). Plates were then washed twice with wash buffer (0.01% Tween 20 in phosphate-buffered saline). Compounds to be tested (“test compounds”) were added to the wells at 5× final concentration. Reactions were initiated by immediate addition of 40 μl reaction mix (25 mM HEPES, 20 mM MgCl2, 0.002% Tween 20, 2 mM DTT, 1 [M ATP, 4 nM 33P-ATP) and a sufficient amount of enzyme to give counts that were at least 10-fold above background. Plates were incubated at room temperature on a shaker for 30 minutes. Plates were washed four times with the wash buffer, sealed, and counted on the TopCount scintillation counter (Packard Instrument Co., Downers Grove, Ill.]. The percent inhibition of Rb phosphorylation, which is a measure of the inhibition of CDK activity, was determined according to the following formula:
[formula] where “test compound” refers to the average counts per minute of the test duplicates, “nonspecific” refers to the average counts per minute when no CDK1/Cyclin B, etc., was added, and “total” refers to the average counts per minute when no compound was added. […] The value of the inhibitor constant Ki is calculated by the following: Ki=IC50/(1+[S]/Km), where [S] is the ATP concentration and Km is Michaelis constant.
The Homogeneous Time Resolved Fluorescence (HTRF) kinase assay was carried out in 96-well polypropylene plates (BD Biosciences, Bedford, Mass.). […]

T1 sequence (P06493 whole entry): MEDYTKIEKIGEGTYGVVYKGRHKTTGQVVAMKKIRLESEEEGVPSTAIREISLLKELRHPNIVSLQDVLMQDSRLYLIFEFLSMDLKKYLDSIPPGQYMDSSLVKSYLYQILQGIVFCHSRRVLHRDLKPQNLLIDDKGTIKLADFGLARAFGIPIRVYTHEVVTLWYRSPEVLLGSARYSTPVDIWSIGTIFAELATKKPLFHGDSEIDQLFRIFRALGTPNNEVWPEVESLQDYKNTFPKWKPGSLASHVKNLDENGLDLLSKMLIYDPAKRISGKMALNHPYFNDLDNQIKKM
T1 sequence (P14635 whole entry partner): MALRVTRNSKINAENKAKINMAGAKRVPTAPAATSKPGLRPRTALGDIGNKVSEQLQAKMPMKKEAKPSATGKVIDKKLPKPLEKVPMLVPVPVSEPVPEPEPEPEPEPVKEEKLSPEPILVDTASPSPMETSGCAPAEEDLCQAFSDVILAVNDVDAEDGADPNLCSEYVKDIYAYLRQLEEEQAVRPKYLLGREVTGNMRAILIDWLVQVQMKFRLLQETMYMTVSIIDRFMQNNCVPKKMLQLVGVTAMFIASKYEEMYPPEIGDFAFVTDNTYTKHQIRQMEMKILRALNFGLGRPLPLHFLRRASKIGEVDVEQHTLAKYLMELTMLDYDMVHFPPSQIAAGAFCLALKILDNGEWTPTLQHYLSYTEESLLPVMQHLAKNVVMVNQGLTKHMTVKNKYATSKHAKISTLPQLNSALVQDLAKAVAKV

Compound	Ki [µM]
CCOc1cc(N)nc2ccc(/C=C3\SC(N)=NC3=O)cc12 [Example 3, 2-Amino-5-(2-amino-4-ethoxy-quinolin-6-ylmethylene)-thiazol-4-one]	0.03
Nc1ccc2cc(/C=C3\SC(N[C@@H]4C[C@H]4c4ccccc4)=NC3=O)ccc2n1 [Example 1, 5-[1-(2-Amino-quinolin-6-yl)-meth-(Z)-ylidene]-2-((1R,2S)-2-phenyl-cyclopropylamino)-thiazol-4-one; compound with trifluoro-acetic acid]	0.023
CCOc1cc(NC(C)=O)nc2ccc(/C=C3\SC(NCC4COCCO4)=NC3=O)cc12 (centres unmarked) [Example 9]	3.24

The remaining compounds from weak to strong by Ki, led by results:

Ki [µM]	Compound
0.097	CCOc1cc(NC(C)=O)nc2ccc(/C=C3\SC(N)=NC3=O)cc12 [Example 7, N-(6-{2-Amino-4-oxo-4H-thiazol-5-ylidenemethyl}-4-ethoxy-quinolin-2-yl)-acetamide]
0.085	CCOc1cc(NC(C)=O)nc2ccc(/C=C3\SC(NC4CC4)=NC3=O)cc12 [Example 5, N-[6-(2-Cyclopropylamino-4-oxo-4H-thiazol-5-ylidenemethyl)-4-ethoxy-quinolin-2-yl]-acetamide]
